From US20180119123A1, “CRISPR/CAS-RELATED METHODS AND COMPOSITIONS FOR TREATING HIV INFECTION AND AIDS” (EDITAS MEDICINE, INC., priority 2015, published 2018) come the findings set out here.

Common to all, as to assay type: cell-based
Data set [1] relates to CCR5 locus. Kind of data set: T7E1 analysis of gene disruption at CCR5 after Cas9 RNP electroporation of primary human T lymphocytes. To be noted: human CD4+ T lymphocytes, WT Cas9 RNP, 5 μg each RNP per 200,000 cells, 72 hours after electroporation. The source says: While transplantation of autologous CD34^+ HSCs genetically modified to prevent expression of the wild-type CXCR4 or the CCR5 would provide a long-term cure to HIV infection, the myeloablative conditioning associated with HSC transplantation destroys host adaptive immunity […] until the T cell pool is reconstituted after HSC engraftment is acheived, which can take several months. This delay in adaptive immune reconstitution puts patients at risk for the development of opportunistic infections during the acute phase of early engraftment following HSC transplantation. […] In this Example, single and multiplex genome editing in human T lymphocytes after electroporation of Cas9 RNP targeting the CXCR4 locus, the CCR5 locus, or both simultaneously (multiplexing) was evaluated after electroporation of CXCR4 and CCR5 gRNAs that were in vitro transcribed and modified to have an ARCA cap at the 5′ end and a polyA (20A) tail at the 3′ end. […] Table 16 depicts experimental design associated with Example 9 to evaluate gene editing as determined by T7E1 endonuclease assay analysis of the CXCR4 and CCR5 loci after electroporation of primary human T lymphocytes with S. aureus and/or S. pyogenes RNPs. […]

Data set [2] relates to CCR5 locus. Kind of data set: T7E1 endonuclease assay at CCR5 after Cas9 RNP electroporation of human cord blood CD34+ HSCs. To be noted: human CB CD34+ HSCs, WT Cas9 RNP, 5 μg each per 200,000 cells, 72 hours after electroporation. The source says:
Transplantation of autologous CD34^+ hematopoietic stem cells (HSCs, also known as hematopoietic stem/progenitor cells or HSPCs) that have been edited to disrupt expression of CXCR4 or CCR5 gene products would prevent entry of the HIV virus HSC progeny that are normally susceptible to HIV infection (e.g., macrophages and CD4 T lymphocytes). Multiplex genome editing with the Cas9 RNP complexed to modified gRNAs precisely alters more than one endogenous gene targets by creating indels at two different cut sites can lead to knock down of gene expression at multiple edited loci. In this Example, single target and multiplex genome editing was evaluated in human umbilical cord blood (CB) CD34^+ cells after electroporation of wild-type S. pyogenes Cas9, wild-type S. aureus Cas9 or D10A nickase. Briefly, Cas9 protein was complexed with modified sgRNAs targeting CXCR4 or CCR5. […] Seventy-two hours after electroporation of RNP with the Amaxa nucleofector system, CD34^+ HSCs were collected, gDNA isolated and CXCR4 and CCR5 PCR products analyzed by T7E1 endonuclease assay to evaluate targeted disruption of these HIV co-receptors (Table 19). Table 19 depicts experimental design associated with Example 10 to evaluate gene editing determined by T7E1 endonuclease assay analysis of the at CXCR4 and CCR5 loci after electroporation of primary human CD34^+ HSCs with S. aureus and/or S. pyogenes RNPs.

The next data set deals with human CCR5 gene. Kind of data set: T7E1 endonuclease assay of CCR5 PCR product after electroporation of S. aureus Cas9 plasmid and gRNA STITCHR product into K562 cells. As to conditions: 750 ng S. aureus Cas9 plasmid DNA and 250 ng STITCHR product, 48 and 72 hours after electroporation. The source says:
To identify gRNAs that efficiently target disruption of the human CCR5 gene, eleven gRNAs were selected from a larger list of gRNAs obtained from in silico prediction of gRNAs with S. aureus specific PAM sequences. In silico predicted gRNAs were tiered according to the strategy described in Section 8. An abbreviated list of eleven gRNAs with the lowest predictive off-target scores were selected for subsequent screening experiments, based on proximity to the naturally occurring de1ta32 mutation in CCR5 that has been associated with resistance to HIV. The target-specific complementary region of the selected list of eleven gRNAs are depicted in Table 15.
A DNA plasmid encoding an S. aureus expression cassette (AF002) and a gRNA-specific STITCHR product, which is a DNA molecule consisting of a U6 promoter driving expression of the chimeric gRNA (i.e., a target-specific complementary sequence and the S. aureus gRNA scaffold), were electroporated into K562 cells using the Amaxa Nucleofector system and the program and protocol for K562 cells per the manufacturer's instructions. In brief, 750 ng S. aureus Cas9 plasmid DNA and 250 ng of STITCHR product were used for each gRNA. […]

For the substance “CCR5_Sa3: S. aureus gRNA targeting CCR5; GUGGUGACAAGUGUGAUCAC (SEQ ID NO: 488) (RNA, backbone not given here; in vitro transcribed gRNA with scaffold, 5' ARCA cap, 3' polyA (20A) tail)”, the figures for the “% editing at CCR5” value in the data set on CCR5 locus [1] and with CCR5 locus [2] were 1.98% and 0.44%, respectively. Moreover, the “indels in CCR5” value in the data set with human CCR5 gene was “about 39%”.
